# Like-named read-outs stand apart in the source and are kept apart here.
# Key:
# Escherichia coli = assay: Germicidal suspension assay, E. coli; format: cell-based; conditions: for % survival at 1 min: 37° C.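 For all read-outs here: surviving cells were scored as colonies on nutrient agar after 24 h at 37° C, survival given as percent of untreated controls.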
# Experimental: E. coli cells from an overnight Trypticase soy nutrient agar (TSA) were resuspended to a density measured as an absorbance of 1.0 at 600 nm in sterile ddH2 O. The reaction of the cells with each of the bactericidal test formulations analyzed was started by addition of 30 μl of cells to 970 μl of test formulation. The reaction mixture was incubated at 37° C for at least 1 minute and then centrifuged in a microfuge for 1 minute. The cell pellet was washed by resuspension in 1 ml of neutralization buffer. (The neutralization buffer: 50 mM Tris-HCl, pH 7.0, 5 mM MgSO4, 20 mM CaCl2, 0.1 M NaCl and 0.1% gelatin was prepared by first making Tris buffer and adjusting the pH. The salts and gelatin were then added and the solution stirred with heat until the solution was clear. The solution was then autoclaved for 20 min. The neutralization buffer was used without dilution.) The cells were centrifuged in a microfuge for 1 minute and resuspended in 1 ml of neutralization buffer. The viable count was determined by spreading 100 μl of bacterial suspension and serial dilutions thereof in neutralization buffer on nutrient agar and scoring surviving colonies after 24 h at 37° C. Percent survival relative to untreated controls was calculated from the scored values.
# E. coli strain ATCC8739 = assay: Nisin-citrate agar growth inhibition assay; format: cell-based, Escherichia coli
# Experimental: The nisin-citrate agar assay is performed as follows. E. coli is resuspended to an optical density of 1.0 at A600. A 100 μl sample of the bacterial suspension is spread uniformly on Trypticase Soy nutrient agar (TSA) supplemented with various concentrations of citrate (e.g. 0.1%, 0.3%, 1.0%, 3.0%) and incubated for 1 hour at 37° C. A nisin stock solution and serial dilutions thereof in 0.1% bovine serum albumin (BSA), are prepared and 5 μl are taken from each and deposited onto the growing bacterial lawn. The TSA plates are then incubated for 24 hours at 37° C. After 24 hours at 37° C., E. coli grown on TSA supplemented with citrate form a confluent lawn. […] The effectiveness of nisin against the gram negative bacteria can be assessed from determining the minimum amount of nisin required to produce a clear zone of growth inhibition. As the concentration of citrate in the nutrient agar is increased, less nisin is required to inhibit the growth of E. coli, as is illustrated by the data shown in Table 6.
substance,measurement,setting,value
nisin,% survival at 1 min,"Escherichia coli; 0.1% w/v acetate pH 3.5, nisin 100 μg/ml and/or EDTA 1.0 mM where present, initial 2 × 10^7 cfu/ml",9.6%
same,% survival at 1 min,"Escherichia coli; 0.1% w/v lactate pH 3.5, nisin 100 μg/ml and/or EDTA 1.0 mM where present, initial 5 × 10^7 cfu/ml",4.4%
same,% survival at 1 min,"Escherichia coli; 0.1% w/v succinate pH 3.5, nisin 100 μg/ml and/or EDTA 1.0 mM where present, initial 3.4 × 10^6 cfu/ml",18.3%
same,% survival at 1 min,"Escherichia coli; 0.3% w/v acetate pH 3.5, nisin 100 μg/ml and/or EDTA 1.0 mM where present, initial 2 × 10^7 cfu/ml",70%
same,% survival at 1 min,"Escherichia coli; 0.3% w/v lactate pH 3.5, nisin 100 μg/ml and/or EDTA 1.0 mM where present, initial 5 × 10^7 cfu/ml",0.24%
same,% survival at 1 min,"Escherichia coli; 0.3% w/v succinate pH 3.5, nisin 100 μg/ml and/or EDTA 1.0 mM where present, initial 3.4 × 10^6 cfu/ml",66.6%
same,% survival at 1 min,"Escherichia coli; 1.0% w/v acetate pH 3.5, nisin 100 μg/ml and/or EDTA 1.0 mM where present, initial 2 × 10^7 cfu/ml",100%
same,% survival at 1 min,"Escherichia coli; 1.0% w/v lactate pH 3.5, nisin 100 μg/ml and/or EDTA 1.0 mM where present, initial 5 × 10^7 cfu/ml",17.8%
same,% survival at 1 min,"Escherichia coli; 1.0% w/v succinate pH 3.5, nisin 100 μg/ml and/or EDTA 1.0 mM where present, initial 3.4 × 10^6 cfu/ml",83.4%
same,% survival at 1 min,"Escherichia coli; 3.0% w/v acetate pH 3.5, nisin 100 μg/ml and/or EDTA 1.0 mM where present, initial 2 × 10^7 cfu/ml",100%
same,% survival at 1 min,"Escherichia coli; 3.0% w/v lactate pH 3.5, nisin 100 μg/ml and/or EDTA 1.0 mM where present, initial 5 × 10^7 cfu/ml",26.7%
same,% survival at 1 min,"Escherichia coli; 3.0% w/v succinate pH 3.5, nisin 100 μg/ml and/or EDTA 1.0 mM where present, initial 3.4 × 10^6 cfu/ml",28.4%
same,survival of E. coli on exposure to the agent by itself,Escherichia coli; agent by itself,unaffected
same,% survival at 1 min,"Escherichia coli; pH 2.0, 20 mM Na acetate buffer, nisin 100 μg/ml and/or EDTA 1.0 mM, initial 4 × 10^7 cfu/ml",0.28%
same,% survival at 1 min,"Escherichia coli; pH 2.5, 20 mM Na acetate buffer, nisin 100 μg/ml and/or EDTA 1.0 mM, initial 4 × 10^7 cfu/ml",3.37%
same,% survival at 1 min,"Escherichia coli; pH 3.0, 20 mM Na acetate buffer, nisin 100 μg/ml and/or EDTA 1.0 mM, initial 4 × 10^7 cfu/ml",4.43%
same,% survival at 1 min,"Escherichia coli; pH 3.5, 20 mM Na acetate buffer, nisin 100 μg/ml and/or EDTA 1.0 mM, initial 4 × 10^7 cfu/ml",100%
same,% survival at 1 min,"Escherichia coli; pH 4.0, 20 mM Na acetate buffer, nisin 100 μg/ml and/or EDTA 1.0 mM, initial 4 × 10^7 cfu/ml",100%
same,Nisin NIC (nominal inhibitory concentration of nisin minimally required to prevent growth),E. coli strain ATCC8739; Trypticase Soy Agar supplemented with 0.1% citrate,370 µg/mL
same,Nisin NIC (nominal inhibitory concentration of nisin minimally required to prevent growth),E. coli strain ATCC8739; Trypticase Soy Agar supplemented with 0.3% citrate,123 µg/mL
same,Nisin NIC (nominal inhibitory concentration of nisin minimally required to prevent growth),E. coli strain ATCC8739; Trypticase Soy Agar supplemented with 1.0% citrate,13.7 µg/mL
same,Nisin NIC (nominal inhibitory concentration of nisin minimally required to prevent growth),E. coli strain ATCC8739; Trypticase Soy Agar supplemented with 3.0% citrate,0.06 µg/mL
same,Nisin NIC (nominal inhibitory concentration of nisin minimally required to prevent growth),"E. coli strain ATCC8739; Trypticase Soy Agar, 0% citrate","3,333 μg/ml"
same,% survival at 5 min,Helicobacter pylori; pH 7,5.88
same,% survival at 5 min,"Helicobacter pylori; strain ATCC43504, pH 5.0, citrate 0, nisin 100 μg/ml, second of two experiments (initial 3.26 × 10^5 cfu/ml)",0.043%
same,% survival at 5 min,"Helicobacter pylori; strain ATCC43504, pH 7.0, citrate 0, nisin 100 μg/ml, initial 9.62 × 10^4 cfu/ml",2.08%
same,% survival at 5 min,"Helicobacter pylori; strain ATCC43579, citrate 0, nisin 100 μg/ml, pH 5.0, average of 5 experiments",0.30%
same,% survival at 5 min,"Helicobacter pylori; strain ATCC43579, pH 5.0, citrate 0, nisin 100 μg/ml, 37° C., initial 1.04 × 10^4 cfu/ml",9.62%
same,% survival at 5 min,"Helicobacter pylori; strain ATCC43579, pH 5.0, nisin 10 μg/ml, citrate 0.1% where present, 37° C.",1.31%
same,% survival at 5 min,"Helicobacter pylori; strain ATCC43579, pH 5.0, nisin 30 μg/ml, citrate 0.1% where present, 37° C.",0.39%
same,% survival at 5 min,"Helicobacter pylori; strain ATCC43579, pH 5.0, nisin 100 μg/ml, citrate 0.1% where present, 37° C.",0.085%
same,% survival at 5 min,"Helicobacter pylori; strain ATCC43579, pH 5.0, nisin 300 μg/ml, citrate 0.1% where present, 37° C.",0.0056%
same,% survival at 5 min,"Helicobacter pylori; strain ATCC43579, pH 7.0, citrate 0, nisin 100 μg/ml, 37° C.",0.78%
